Data taken from US8841294B2, “Active ingredient combinations having insecticidal and acaricidal properties” (Bayer Cropscience AG, priority 1999, dated 2014).

How the values were obtained:
Type in all cases: in vivo
[1] = test system: cotton aphid (Aphis gossypii); experiment: Aphis gossypii test; details: single active compound, 1.6 ppm, cotton leaves dipped
Description: (§1) To produce a suitable preparation of active compound, 1 part by weight of active compound is mixed with the stated amounts of solvent and emulsifier, and the concentrate is diluted with water to the desired concentrations.
Cotton leaves (Gossypium hirsutum) which are heavily infested by the cotton aphid (Aphis gossypii) are treated by being dipped into the preparation of active compound of the desired concentration.
After the desired period of time, the kill in % is determined. 100% means that all aphids have been killed; 0% means that none of the aphids have been killed. The kill rates that are determined are assessed using Colby's formula.

[2] = test system: larvae of the cotton aphid (Aphis gossypii); experiment: Aphis gossypii test/larval mortality; details: single active compound, 1.6 ppm, cotton leaves dipped
Description: Aphis Gossypii Test/Larval Mortality
as §1
Cotton leaves (Gossypium hirsutum) which are heavily infested by adults and larvae of the cotton aphid (Aphis gossypii) are treated by being dipped into the preparation of active compound of the desired concentration.
After the desired period of time, the kill of larvae in % is determined. 100% means that all larvae have been killed; 0% means that none of the larvae have been killed. The kill rates that are determined are assessed using Colby's formula.

[3] = test system: larvae of the peach aphid (Myzus persicae); experiment: Myzus test/larval mortality; details: single active compound, 0.32 ppm, cabbage leaves dipped
Description: Myzus Test/Larval Mortality
as §1
Cabbage leaves (Brassica oleracea) which are heavily infested by adults and larvae of the peach aphid (Myzus persicae) are treated by being dipped into the preparation of active compound of the desired concentration.
After the desired period of time, the kill of the larvae in % is determined. 100% means that all larvae have been killed; 0% means that none of the larvae have been killed. The kill rates determined are assessed using Colby's formula.

[4] = test system: peach aphid (Myzus persicae); experiment: Myzus test; details: single active compound, 1.6 ppm, cabbage leaves dipped
Description: as §1
Cabbage leaves (Brassica oleracea) which are heavily infested by the peach aphid (Myzus persicae) are treated by being dipped into the preparation of active compound of the desired concentration.
After the desired period of time, the kill in % is determined. 100% means that all animals have been killed; 0% means that none of the animals have been killed. The kill rates determined are assessed using Colby's formula.

Structure (SMILES)	Kill rates in % after 6d [1] [%]	Kill rate in % after 6d (larvae) [2] [%]	Kill rates in % after 1d (larvae) [3] [%]	Kill rates in % after 1d [4] [%]
N#C/N=C1\SCCN1Cc1ccc(Cl)nc1 [Ex. (IIk)]	55	60		
CCC(C)(C)C(=O)OC1=C(c2ccc(Cl)cc2Cl)C(=O)OC12CCCCC2 [Ex. (Ia)]	0	0	0	0
O=[N+]([O-])/N=C1\NCCN1Cc1ccc(Cl)nc1 [Ex. (IIa)]	85	80	0	70
